Measurements published in ChEMBL document CHEMBL3745645, “Synthesis, in vitro antitumor activity, dihydrofolate reductase inhibition, DNA intercalation and structure-activity relationship studies of 1,3,5-triazine analogues” (Bioorg Med Chem Lett, 2016).
Activity calls are given as the source filed them. The rule behind the calls is not given here.

Tests used:
[1] = Cytotoxicity against human OVCAR3 cells at 10 uM after 48 hrs by SRB assay; type: functional; conditions: OVCAR-3, 48 h, read-out: GI
[2] = tested on: SN12C; assay: Cytotoxicity against human SN12C cells at 10 uM after 48 hrs by SRB assay; type: functional; conditions: read-out: GI
[3] = Cytotoxicity against human SF539 cells at 10 uM after 48 hrs by SRB assay; type: functional; conditions: SF-539, 48 h, read-out: GI
[4] = target: T1, Dihydrofolate reductase (Homo sapiens, UniProt P00374); assay: Inhibition of human recombinant DHFR expressed in Escherichia coli by spectrophotometric analysis
T1 sequence (P00374 whole entry): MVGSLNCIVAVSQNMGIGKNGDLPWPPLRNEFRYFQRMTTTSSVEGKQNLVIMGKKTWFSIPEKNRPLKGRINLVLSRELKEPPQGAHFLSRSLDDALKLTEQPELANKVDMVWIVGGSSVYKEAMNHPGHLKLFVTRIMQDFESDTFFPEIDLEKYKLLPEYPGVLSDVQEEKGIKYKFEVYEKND

[5] = Cytotoxicity against human PC3 cells after 48 hrs by SRB assay; type: functional; conditions: PC-3, 48 h; for GI50 / TGI: pooled result: one value given for 2 cell lines, strains, targets or settings
[6] = Cytotoxicity against human SF268 cells at 10 uM after 48 hrs by SRB assay; type: functional; conditions: SF-268, 48 h, read-out: GI
[7] = tested on: A498; assay: Cytotoxicity against human A498 cells at 10 uM after 48 hrs by SRB assay; type: functional
[8] = tested on: HT-29; assay: Cytotoxicity against human HT-29 cells at 10 uM after 48 hrs by SRB assay; type: functional
[9] = Cytotoxicity against human LOXIMVI cells after 48 hrs by SRB assay; type: functional; conditions: LOX IMVI, pooled result: one value given for 9 cell lines, strains, targets or settings
[10] = tested on: NCI-H322M; assay: Cytotoxicity against human NCI-H322M cells at 10 uM after 48 hrs by SRB assay; type: functional; conditions: read-out: GI
[11] = tested on: NCI-H226; assay: Cytotoxicity against human NCI-H226 cells at 10 uM after 48 hrs by SRB assay; type: functional; conditions: NCI-H226, 48 h, read-out: GI
[12] = Cytotoxicity against human RXF393 cells at 10 uM after 48 hrs by SRB assay; type: functional; conditions: RXF 393, 48 h, read-out: GI
[13] = Cytotoxicity against human SW620 cells at 10 uM after 48 hrs by SRB assay; type: functional; conditions: SW-620, 48 h, read-out: GI
[14] = tested on: KM12; assay: Cytotoxicity against human KM12 cells at 10 uM after 48 hrs by SRB assay; type: functional; conditions: KM12, 48 h, read-out: GI
[15] = Cytotoxicity against human COLO205 cells at 10 uM after 48 hrs by SRB assay; type: functional; conditions: COLO 205, 48 h, read-out: GI
[16] = tested on: NCI-H460; assay: Cytotoxicity against human NCI-H460 cells at 10 uM after 48 hrs by SRB assay; type: functional; conditions: NCI-H460, 48 h, read-out: GI
[17] = tested on: K562; assay: Cytotoxicity against human K562 cells after 48 hrs by SRB assay; type: functional; conditions: K562, 48 h
[18] = tested on: SR; assay: Cytotoxicity against human SR cells at 10 uM after 48 hrs by SRB assay; type: functional
[19] = Cytotoxicity against human IGROV1 cells after 48 hrs by SRB assay; type: functional; conditions: IGROV-1, 48 h, pooled result: one value given for 7 cell lines, strains, targets or settings
[20] = Cytotoxicity against human DU145 cells at 10 uM after 48 hrs by SRB assay; type: functional; conditions: DU-145, 48 h, read-out: GI
[21] = tested on: MDA-MB-231; assay: Cytotoxicity against human MDA-MB-231 cells at 10 uM after 48 hrs by SRB assay; type: functional; conditions: MDA-MB-231, 48 h, read-out: GI
[22] = tested on: CCRF-CEM; assay: Cytotoxicity against human CCRF-CEM cells after 48 hrs by SRB assay; type: functional; conditions: for GI50 / TGI: pooled result: one value given for 6 cell lines, strains, targets or settings
[23] = tested on: Malme-3M; assay: Cytotoxicity against human MALME-3M cells at 10 uM after 48 hrs by SRB assay; type: functional
[24] = tested on: NCI-H522; assay: Cytotoxicity against human NCI-H522 cells at 10 uM after 48 hrs by SRB assay; type: functional; conditions: NCI-H522, 48 h, read-out: GI
[25] = tested on: SR; assay: Cytotoxicity against human SR cells after 48 hrs by SRB assay; type: functional
[26] = Cytotoxicity against human HOP92 cells at 10 uM after 48 hrs by SRB assay; type: functional; conditions: HOP-92, 48 h, read-out: GI
[27] = Cytotoxicity against human OVCAR8 cells at 10 uM after 48 hrs by SRB assay; type: functional; conditions: OVCAR-8, 48 h, read-out: GI
[28] = tested on: CCRF-CEM; assay: Cytotoxicity against human CCRF-CEM cells at 10 uM after 48 hrs by SRB assay; type: functional
[29] = tested on: MDA-MB-468; assay: Cytotoxicity against human MDA-MB-468 cells at 10 uM after 48 hrs by SRB assay; type: functional; conditions: MDA-MB-468, 48 h, read-out: GI
[30] = Cytotoxicity against human HL-60(TB) cells after 48 hrs by SRB assay; type: functional; conditions: HL-60, 48 h, read-out: LC50 (the source's name)
[31] = Cytotoxicity against human LOXIMVI cells at 10 uM after 48 hrs by SRB assay; type: functional; conditions: LOX IMVI, read-out: GI
[32] = Cytotoxicity against human RPMI8226 cells after 48 hrs by SRB assay; type: functional; conditions: RPMI-8226, 48 h, read-out: LC50 (the source's name)
[33] = tested on: SK-MEL-2; assay: Cytotoxicity against human SK-MEL-2 cells at 10 uM after 48 hrs by SRB assay; type: functional; conditions: SK-MEL-2, 48 h, read-out: GI
[34] = tested on: T47D; assay: Cytotoxicity against human T47D cells at 10 uM after 48 hrs by SRB assay; type: functional; conditions: read-out: GI
[35] = Cytotoxicity against human SKOV3 cells at 10 uM after 48 hrs by SRB assay; type: functional; conditions: SK-OV-3, 48 h, read-out: GI
[36] = tested on: MCF7; assay: Cytotoxicity against human MCF7 cells after 48 hrs by SRB assay; type: functional; conditions: MCF7, 48 h, pooled result: one value given for 6 cell lines, strains, targets or settings
[37] = Cytotoxicity against human OVCAR5 cells at 10 uM after 48 hrs by SRB assay; type: functional; conditions: OVCAR-5, 48 h, read-out: GI
[38] = tested on: U-251; assay: Cytotoxicity against human U251 cells at 10 uM after 48 hrs by SRB assay; type: functional; conditions: U-251, 48 h, read-out: GI
[39] = Cytotoxicity against human DU145 cells after 48 hrs by SRB assay; type: functional; conditions: DU-145, 48 h, read-out: LC50 (the source's name)
[40] = tested on: SK-MEL-5; assay: Cytotoxicity against human SK-MEL-5 cells at 10 uM after 48 hrs by SRB assay; type: functional; conditions: SK-MEL-5, 48 h, read-out: GI
[41] = Cytotoxicity against human MOLT4 cells at 10 uM after 48 hrs by SRB assay; type: functional; conditions: MOLT-4, 48 h, read-out: GI

## COc1ccc(-c2nc(Nc3ccc(F)cc3)nc(Nc3ccc4c(c3)nc(C)n4Cc3ccccc3)n2)cc1
[1]
  inhibition of growth at 10 µM: 49.5%
[2]
  inhibition of growth at 10 µM: 51.6%
[3]
  inhibition of growth at 10 µM: 32.2%
[4]
  IC50: 0.32 µM
[5]
  LC50: > 100 µM
  GI50: 5.35 µM
  TGI: > 100 µM
[6]
  inhibition of growth at 10 µM: 53.1%
[7]; A498, 48 h, read-out: GI
  inhibition of growth at 10 µM: 27.3%
[8]; HT-29, 48 h, read-out: GI
  inhibition of growth at 10 µM: 91.1%
[9]
  GI50: 4.43 µM
  LC50: > 100 µM
  TGI: 31.2 µM
[10]
  inhibition of growth at 10 µM: 17.6%
[11]
  inhibition of growth at 10 µM: 33.4%
[12]
  inhibition of growth at 10 µM: 64.3%
[13]
  inhibition of growth at 10 µM: 54.3%
[14]
  inhibition of growth at 10 µM: 74%
[15]
  inhibition of growth at 10 µM: 71.8%
[16]
  inhibition of growth at 10 µM: 69.7%
[17]
  LC50: > 100 µM
[18]
  growth inhibition (GI): Active
[19]
  GI50: 4.79 µM
  LC50 (concentration killing 50% of cells): > 100 µM
  TGI: 40.5 µM
[20]
  inhibition of growth at 10 µM: 45.3%
[21]
  inhibition of growth at 10 µM: 68.8%
[22]
  LC50: > 100 µM
  GI50: 3.37 µM
  TGI: 67.9 µM
[23]; read-out: GI
  inhibition of growth at 10 µM: 47.2%
[24]
  inhibition of growth at 10 µM: 44.6%
[25]
  LC50 (concentration killing 50% of cells): > 100 µM
[26]
  inhibition of growth at 10 µM: 60.3%
[27]
  inhibition of growth at 10 µM: 82.1%
[28]
  growth inhibition (GI): Active
[29]
  inhibition of growth at 10 µM: 71.6%
[30]
  CC50: > 100 µM
[31]
  inhibition of growth at 10 µM: 61.1%
[32]
  CC50: > 100 µM
[33]
  inhibition of growth at 10 µM: 51.8%
[34]
  inhibition of growth at 10 µM: 88.5%
[35]
  inhibition of growth at 10 µM: 23.2%
[36]
  GI50: 3.6 µM
  LC50 (concentration killing 50% of cells): > 100 µM
  TGI: 23.4 µM
[37]
  inhibition of growth at 10 µM: 11.9%
[38]
  inhibition of growth at 10 µM: 60.8%
[39]
  CC50: > 100 µM
[40]
  inhibition of growth at 10 µM: 52.9%

## Cc1nc2ccc(Nc3nc(NCCN4CCOCC4)nc(Nc4ccc(F)cc4)n3)cc2n1Cc1ccccc1
[1]
  inhibition of growth at 10 µM: 26.3%
[2]
  inhibition of growth at 10 µM: 38.1%
[3]
  inhibition of growth at 10 µM: 70.2%
[4]
  IC50: 0.002 µM
[5]
  LC50: 62.5 µM
  GI50: 4.41 µM
  TGI: 43.9 µM
[6]
  inhibition of growth at 10 µM: 37.2%
[7]
  growth inhibition (GI): Active
[8]
  growth inhibition (GI): Active
[9]
  GI50: 1.91 µM
  LC50: 24.2 µM
  TGI: 4.08 µM
[10]
  inhibition of growth at 10 µM: 35.9%
[11]
  inhibition of growth at 10 µM: 27.9%
[12]
  inhibition of growth at 10 µM: 88%
[13]
  inhibition of growth at 10 µM: 57.6%
[14]
  inhibition of growth at 10 µM: 56.6%
[15]
  inhibition of growth at 10 µM: 98.8%
[41]
  inhibition of growth at 10 µM: 77.3%
[16]
  inhibition of growth at 10 µM: 70.6%
[17]
  LC50: 55 µM
[18]; read-out: GI
  inhibition of growth at 10 µM: 99.8%
[19]
  GI50: 4.01 µM
  LC50 (concentration killing 50% of cells): 62.3 µM
  TGI: 27.4 µM
[20]
  inhibition of growth at 10 µM: 40.8%
[21]
  inhibition of growth at 10 µM: 66.7%
[22]
  LC50: 55 µM
  GI50: 1.96 µM
  TGI: 6.82 µM
[23]
  growth inhibition (GI): Active
[24]
  inhibition of growth at 10 µM: 41.3%
[25]
  LC50 (concentration killing 50% of cells): 55 µM
[26]
  inhibition of growth at 10 µM: 69.7%
[27]
  inhibition of growth at 10 µM: 49.9%
[28]; read-out: GI
  inhibition of growth at 10 µM: 70.5%
[29]
  inhibition of growth at 10 µM: 86%
[30]
  CC50: 55 µM
[31]
  inhibition of growth at 10 µM: 94.3%
[32]
  CC50: 55 µM
[34]
  inhibition of growth at 10 µM: 47%
[35]
  inhibition of growth at 10 µM: 21%
[36]
  GI50: 2.04 µM
  LC50 (concentration killing 50% of cells): 20.6 µM
  TGI: 8.99 µM
[37]
  inhibition of growth at 10 µM: 15.9%
[38]
  inhibition of growth at 10 µM: 71.3%
[39]
  CC50: 62.5 µM
[40]
  inhibition of growth at 10 µM: 85.8%
